Values of other authors as cited in patent publication US20090041835A1, “METHOD OF INHIBITING LEAKAGE OF DRUG ENCAPSULATED IN LIPOSOMES” (KYOWA HAKKO KOGYO CO., LTD., priority 1999, published 2009).

Conditions: LUVs of 190 nm average particle size, pH gradient using ammonium sulfate; 50% mouse serum at 37° C.

## O=C(O)c1cn(C2CC2)c2cc(N3CCNCC3)c(F)cc2c1=O [ciprofloxacin]
  leakage of drug out of the LUVs: rapidly leaked out
